Values of other authors as cited in patent publication US10085951B2, “Curcuminoid formulations and related methods of treatment” (DESIGNS FOR HEALTH, INC., priority 2014, dated 2018).

Solubility in ethanol, dimethylsulfoxide and acetone: soluble | Solubility in water and ether: practically insoluble
Structure (SMILES): COc1cc(/C=C/C(=O)CC(=O)/C=C/c2ccc(O)c(OC)c2)ccc1O [curcumin, 1,6-heptadiene-3,5-dione1,7-bis (4-hydroxy-3-methoxyphenyl)-(1E,6E)]
